{"source": "patent US20220071939A1", "about": "“COMPOUNDS AND METHODS FOR THE TREATMENT OF POLYCYSTIC KIDNEY DISEASE (PKD)” (Resilio Therapeutics, LLC, priority 2018, published 2022)", "key": {"[1]": {"system": "cysts formed from ADPKD donor cells in 3D cultures", "assay": "3D cyst formation assay (cyst number and cyst size by light microscopy)", "type": "cell-based, human", "conditions": "3D culture", "method": "(§1) Studies were performed on DFMO, the metabolic product of DFMO-prodrugs, in primary cell cultures of 2 dimensional (2D) cellular toxicity assays, 3 dimensional (3D) cyst formation assays and 3D tubulogenesis assays. DFMO was less than 10% toxic (90% viable) to human renal mixed epithelial cells in 2D cultures from Autosomal Dominant Polycystic Kidney Disease (ADPKD) donors up to 10 mM DFMO concentration as measured using a Cell Titer Go kit (FIG. 1). In the 3D cyst cultures, a population of mixed cells from a surgically resected cyst from a donor ADPKD kidney is combined with human kidney fibroblasts to grow cysts in a proprietary media (Discovery BioMed, Inc) that contains conditioned media from kidney fibroblasts and a Biogel matrix (DiscoveryBioMed). Using light microscopy to count cysts, the number of cysts formed in 3D cultures decreased in a dose-dependent fashion to 50% of controls at 10 mM DFMO (FIG. 2). Photomicrographs of cysts formed from ADPKD donor cells in 3D cultures show a time dependent change in cyst size."}, "[2]": {"system": "human renal mixed epithelial cells in 2D cultures from Autosomal Dominant Polycystic Kidney Disease (ADPKD) donors", "assay": "2D cellular toxicity assay (viability by ATP release, Cell TiterGlo kit)", "type": "cell-based", "method": "as §1, with “FIG. 1 is a plot of cell viability as a function of difluoromethyl omithine (DFMO) concentration, showing the viability of primary ADPKD cells in 2D culture as measured by ATP release using Cell TiterGlo kit. Studies” for “Studies”, “2).” for “2). Photomicrographs of cysts formed from ADPKD donor cells in 3D cultures show a time dependent change in cyst size.”"}, "[3]": {"system": "normal human kidney (NHK) cells in 3D cultures", "assay": "3D tubulogenesis assay", "type": "cell-based", "conditions": "10 mM DFMO", "method": "As a further proof of the potential utility of DFMO/DFMO-prodrugs in ADPKD patients, we also performed a tubulogenesis assay with normal human kidney cells in 3D cultures. Vehicle treated normal human kidney (NHK) cells form tubules by Day 3 in 3D cultures (FIG. 5) as do 10 mM DFMO-treated NHK cells, which also form tubules under the same conditions (FIG. 6)."}, "[4]": {"conditions": "2D culture, up to 10 mM DFMO, Cell Titer Glo (ATP release), FIG. 1"}}, "note": "“Also recorded” adds a separate entry of the source.", "data": [{"substance": "difluoromethylornithine [DFMO]", "values": [{"measurement": "cyst size over time", "setting": "[1]; 10 mM DFMO, Day 0 to Day 4, FIG. 4", "value": "decreases with time; also recorded: slight increase on Day 1 followed by a steady decrease in cyst size by Day 4 when the cyst is smaller than on Day 0"}, {"measurement": "number of cysts formed, relative to controls", "setting": "[1]; 10 mM DFMO, FIG. 2", "value": "50 % of controls"}, {"measurement": "number of cysts versus DFMO concentration", "setting": "[1]; FIG. 2", "value": "decrease in a dose-dependent manner"}, {"measurement": "cell viability", "setting": "[2]; [4]", "value": 90, "unit": "%"}, {"measurement": "toxicity to ADPKD cells", "setting": "[2]; [4]", "value": "less than 10%"}, {"measurement": "cell killing in 2D cultures", "setting": "[2]; ADPKD cells, 2D cultures", "value": "not killed"}, {"measurement": "tubule formation", "setting": "[3]; Day 3, FIG. 6", "value": "form tubules"}, {"measurement": "tubule numbers, maturation and elongation versus vehicle", "setting": "[3]; visual comparison over time", "value": "appear similar"}]}]}
